# Data reported in US20230183243A1, “HETEROARYL DERIVATIVES AND PHARMACEUTICAL COMPOSITION COMPRISING SAME AS ACTIVE INGREDIENT” (VORONOI INC., priority 2019, published 2023).
# Key:
# MDA-MB-231 cells = test: Inhibition of proliferation of triple-negative breast cancer cells, CellTiter-Glo; type: cell-based; settings: Homo sapiens, 120 h; MDA-MB-231, cultured for 5 days
# In short: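 MDA-MB-231 cells pre-cultured 24 h (5% CO2, 37 °C), then exposed to compound for 5 days at 12 three-fold dilutions, final 10 μM to 0.05 nM. Viability read by CellTiter-Glo luminescence after 10 min at 37 °C; growth inhibition calculated relative to untreated solvent-control cells.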
# RIPK5 = biological target: T1, RIPK5 (Homo sapiens, UniProt Q6XUX3); test: ScanMAX Kinase panel (DiscoverX); type: binding; settings: read-out: % Cont @ 1 μM
# T1 construct: purchased DiscoverX Corp. (ScanMAX Kinase panel, commissioned)
# T1 sequence (Q6XUX3 whole entry): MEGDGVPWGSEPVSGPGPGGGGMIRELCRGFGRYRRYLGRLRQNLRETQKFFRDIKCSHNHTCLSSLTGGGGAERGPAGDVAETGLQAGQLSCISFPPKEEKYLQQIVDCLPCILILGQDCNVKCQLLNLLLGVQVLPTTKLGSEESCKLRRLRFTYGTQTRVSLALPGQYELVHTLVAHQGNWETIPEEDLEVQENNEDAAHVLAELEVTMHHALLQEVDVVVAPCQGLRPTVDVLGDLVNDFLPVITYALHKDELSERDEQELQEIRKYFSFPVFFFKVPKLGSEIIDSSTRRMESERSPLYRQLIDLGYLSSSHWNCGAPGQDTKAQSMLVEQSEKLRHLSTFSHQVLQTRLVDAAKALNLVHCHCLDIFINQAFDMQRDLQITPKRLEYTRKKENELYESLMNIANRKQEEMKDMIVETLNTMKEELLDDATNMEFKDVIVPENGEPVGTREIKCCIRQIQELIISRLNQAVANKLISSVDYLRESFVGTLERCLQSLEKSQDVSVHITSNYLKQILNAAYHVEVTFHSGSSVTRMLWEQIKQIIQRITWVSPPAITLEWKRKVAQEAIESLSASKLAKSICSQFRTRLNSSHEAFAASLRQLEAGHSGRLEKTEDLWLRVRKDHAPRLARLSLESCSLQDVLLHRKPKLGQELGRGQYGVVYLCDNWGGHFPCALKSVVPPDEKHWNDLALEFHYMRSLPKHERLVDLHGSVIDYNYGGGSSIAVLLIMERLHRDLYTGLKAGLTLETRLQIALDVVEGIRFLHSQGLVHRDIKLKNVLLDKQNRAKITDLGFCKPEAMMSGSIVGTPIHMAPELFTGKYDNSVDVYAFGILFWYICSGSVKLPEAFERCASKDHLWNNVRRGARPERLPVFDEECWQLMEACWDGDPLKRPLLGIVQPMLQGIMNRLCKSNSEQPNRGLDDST
# Protocol: (§1) Specifically, the enzyme (kinase) selectivity of the compound of Example 7 selected from the Example compounds of the present invention was measured by commissioning DiscoverX Corp., and an experiment was performed using a panel for ScanMAX™ Kinase analysis.
# (§2) In this case, the concentration of a drug treated with the enzyme was set at 1 μM in DMSO, and percent control (% control) was defined in the same manner as in the following Expression 1.
# (§3) (Example compound−Positive control)/(Negative control−Positive control)×100 [Expression 1]
# (§4) Wherein the positive control represents a compound having a percent control of 0%, and the negative control represents a compound having a percent control of 100% in DMSO. For the enzyme selectivity of the present invention, the compound was also judged to have activity against the corresponding enzyme when the percent control for each of the enzymes was <30% (i.e., less than 30%).
# (§5) Further, to evaluate the inhibitory activity of the compound according to the present invention against more enzymes, an experiment was performed as follows. Specifically, the enzyme (kinase) selectivity of the compound of Example 64 selected from the Example compounds of the present invention was measured by commissioning DiscoverX Corp., and an experiment was performed using a panel for ScanMAX™ Kinase analysis. In this case, the concentration of a drug treated with the enzyme was set at 1 μM in DMSO, and the percent control (% control) were defined in the same manner as in the following Expression 1.
# as §4, with “<35%” for “<30%”, “35%).” for “30%).”
# SRPK3 = biological target: T2, SRPK3 (Homo sapiens, UniProt Q9UPE1); test: ScanMAX Kinase panel (DiscoverX); type: binding; settings: read-out: % Cont @ 1 μM
# T2 construct: purchased DiscoverX Corp. (ScanMAX Kinase panel, commissioned)
# T2 sequence (Q9UPE1 whole entry): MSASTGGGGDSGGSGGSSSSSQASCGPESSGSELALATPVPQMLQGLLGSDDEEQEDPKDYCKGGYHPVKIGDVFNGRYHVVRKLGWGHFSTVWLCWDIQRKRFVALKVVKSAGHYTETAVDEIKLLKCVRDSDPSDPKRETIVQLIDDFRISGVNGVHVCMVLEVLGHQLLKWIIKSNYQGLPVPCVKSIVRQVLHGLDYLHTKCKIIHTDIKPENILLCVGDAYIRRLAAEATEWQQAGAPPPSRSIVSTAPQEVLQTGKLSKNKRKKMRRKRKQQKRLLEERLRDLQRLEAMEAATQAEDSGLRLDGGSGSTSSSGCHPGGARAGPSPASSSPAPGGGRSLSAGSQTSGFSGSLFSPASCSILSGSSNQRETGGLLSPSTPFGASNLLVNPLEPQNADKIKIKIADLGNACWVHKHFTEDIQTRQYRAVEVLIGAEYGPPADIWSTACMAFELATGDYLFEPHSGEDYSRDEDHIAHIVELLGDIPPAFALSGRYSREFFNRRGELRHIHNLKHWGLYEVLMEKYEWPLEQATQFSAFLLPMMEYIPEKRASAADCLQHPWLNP
# Protocol: as §1, §2, §3, §4, §5
# as §4, with “<35%” for “<30%”, “35%).” for “30%).”
# TTK [1] = biological target: T3, TTK (Homo sapiens, UniProt P33981); test: TTK enzyme activity, ADP-Glo kinase assay; type: biochemical; parameters: purchased SignalChem T20-10G; settings: purified human TTK, ATP 10 μM, 25° C., 2 hours
# T3 sequence (P33981 1-857): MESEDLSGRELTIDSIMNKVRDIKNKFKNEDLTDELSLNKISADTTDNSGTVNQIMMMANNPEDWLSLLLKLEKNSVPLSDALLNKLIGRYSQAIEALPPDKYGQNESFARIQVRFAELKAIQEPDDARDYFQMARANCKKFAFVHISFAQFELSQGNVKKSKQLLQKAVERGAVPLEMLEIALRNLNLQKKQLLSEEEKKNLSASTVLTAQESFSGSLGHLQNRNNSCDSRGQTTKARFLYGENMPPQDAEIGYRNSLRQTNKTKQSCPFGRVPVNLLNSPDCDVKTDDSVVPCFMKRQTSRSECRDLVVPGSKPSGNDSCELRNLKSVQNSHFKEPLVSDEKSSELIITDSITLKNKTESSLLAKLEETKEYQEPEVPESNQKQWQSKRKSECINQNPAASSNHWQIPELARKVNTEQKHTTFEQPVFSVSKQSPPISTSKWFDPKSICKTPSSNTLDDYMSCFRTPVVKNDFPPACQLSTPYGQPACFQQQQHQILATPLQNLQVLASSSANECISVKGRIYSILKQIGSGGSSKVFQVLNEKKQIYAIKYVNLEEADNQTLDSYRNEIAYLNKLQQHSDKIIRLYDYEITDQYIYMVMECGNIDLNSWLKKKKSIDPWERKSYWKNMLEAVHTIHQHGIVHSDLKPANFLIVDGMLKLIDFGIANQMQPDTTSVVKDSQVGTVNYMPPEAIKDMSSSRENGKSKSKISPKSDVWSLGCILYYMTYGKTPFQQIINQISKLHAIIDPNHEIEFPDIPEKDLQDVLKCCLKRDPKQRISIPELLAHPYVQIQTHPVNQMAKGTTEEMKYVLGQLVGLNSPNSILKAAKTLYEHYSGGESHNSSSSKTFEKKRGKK
# In short: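 Purified human TTK (25 ng) incubated with 10 μM ATP and substrate (0.2 μg) for 2 h at 25 °C in Tris-HCl pH 7.4, MgCl2, BSA, DTT buffer. ADP formation read by ADP-Glo; inhibition calculated against untreated solvent control.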
# LRRK2 = LRRK2 (Homo sapiens, UniProt Q5S007); test: ScanMAX Kinase panel (DiscoverX); type: binding; parameters: purchased DiscoverX Corp. (ScanMAX Kinase panel, commissioned); settings: read-out: % Cont @ 1 μM
# Chain of LRRK2 (Q5S007 whole entry): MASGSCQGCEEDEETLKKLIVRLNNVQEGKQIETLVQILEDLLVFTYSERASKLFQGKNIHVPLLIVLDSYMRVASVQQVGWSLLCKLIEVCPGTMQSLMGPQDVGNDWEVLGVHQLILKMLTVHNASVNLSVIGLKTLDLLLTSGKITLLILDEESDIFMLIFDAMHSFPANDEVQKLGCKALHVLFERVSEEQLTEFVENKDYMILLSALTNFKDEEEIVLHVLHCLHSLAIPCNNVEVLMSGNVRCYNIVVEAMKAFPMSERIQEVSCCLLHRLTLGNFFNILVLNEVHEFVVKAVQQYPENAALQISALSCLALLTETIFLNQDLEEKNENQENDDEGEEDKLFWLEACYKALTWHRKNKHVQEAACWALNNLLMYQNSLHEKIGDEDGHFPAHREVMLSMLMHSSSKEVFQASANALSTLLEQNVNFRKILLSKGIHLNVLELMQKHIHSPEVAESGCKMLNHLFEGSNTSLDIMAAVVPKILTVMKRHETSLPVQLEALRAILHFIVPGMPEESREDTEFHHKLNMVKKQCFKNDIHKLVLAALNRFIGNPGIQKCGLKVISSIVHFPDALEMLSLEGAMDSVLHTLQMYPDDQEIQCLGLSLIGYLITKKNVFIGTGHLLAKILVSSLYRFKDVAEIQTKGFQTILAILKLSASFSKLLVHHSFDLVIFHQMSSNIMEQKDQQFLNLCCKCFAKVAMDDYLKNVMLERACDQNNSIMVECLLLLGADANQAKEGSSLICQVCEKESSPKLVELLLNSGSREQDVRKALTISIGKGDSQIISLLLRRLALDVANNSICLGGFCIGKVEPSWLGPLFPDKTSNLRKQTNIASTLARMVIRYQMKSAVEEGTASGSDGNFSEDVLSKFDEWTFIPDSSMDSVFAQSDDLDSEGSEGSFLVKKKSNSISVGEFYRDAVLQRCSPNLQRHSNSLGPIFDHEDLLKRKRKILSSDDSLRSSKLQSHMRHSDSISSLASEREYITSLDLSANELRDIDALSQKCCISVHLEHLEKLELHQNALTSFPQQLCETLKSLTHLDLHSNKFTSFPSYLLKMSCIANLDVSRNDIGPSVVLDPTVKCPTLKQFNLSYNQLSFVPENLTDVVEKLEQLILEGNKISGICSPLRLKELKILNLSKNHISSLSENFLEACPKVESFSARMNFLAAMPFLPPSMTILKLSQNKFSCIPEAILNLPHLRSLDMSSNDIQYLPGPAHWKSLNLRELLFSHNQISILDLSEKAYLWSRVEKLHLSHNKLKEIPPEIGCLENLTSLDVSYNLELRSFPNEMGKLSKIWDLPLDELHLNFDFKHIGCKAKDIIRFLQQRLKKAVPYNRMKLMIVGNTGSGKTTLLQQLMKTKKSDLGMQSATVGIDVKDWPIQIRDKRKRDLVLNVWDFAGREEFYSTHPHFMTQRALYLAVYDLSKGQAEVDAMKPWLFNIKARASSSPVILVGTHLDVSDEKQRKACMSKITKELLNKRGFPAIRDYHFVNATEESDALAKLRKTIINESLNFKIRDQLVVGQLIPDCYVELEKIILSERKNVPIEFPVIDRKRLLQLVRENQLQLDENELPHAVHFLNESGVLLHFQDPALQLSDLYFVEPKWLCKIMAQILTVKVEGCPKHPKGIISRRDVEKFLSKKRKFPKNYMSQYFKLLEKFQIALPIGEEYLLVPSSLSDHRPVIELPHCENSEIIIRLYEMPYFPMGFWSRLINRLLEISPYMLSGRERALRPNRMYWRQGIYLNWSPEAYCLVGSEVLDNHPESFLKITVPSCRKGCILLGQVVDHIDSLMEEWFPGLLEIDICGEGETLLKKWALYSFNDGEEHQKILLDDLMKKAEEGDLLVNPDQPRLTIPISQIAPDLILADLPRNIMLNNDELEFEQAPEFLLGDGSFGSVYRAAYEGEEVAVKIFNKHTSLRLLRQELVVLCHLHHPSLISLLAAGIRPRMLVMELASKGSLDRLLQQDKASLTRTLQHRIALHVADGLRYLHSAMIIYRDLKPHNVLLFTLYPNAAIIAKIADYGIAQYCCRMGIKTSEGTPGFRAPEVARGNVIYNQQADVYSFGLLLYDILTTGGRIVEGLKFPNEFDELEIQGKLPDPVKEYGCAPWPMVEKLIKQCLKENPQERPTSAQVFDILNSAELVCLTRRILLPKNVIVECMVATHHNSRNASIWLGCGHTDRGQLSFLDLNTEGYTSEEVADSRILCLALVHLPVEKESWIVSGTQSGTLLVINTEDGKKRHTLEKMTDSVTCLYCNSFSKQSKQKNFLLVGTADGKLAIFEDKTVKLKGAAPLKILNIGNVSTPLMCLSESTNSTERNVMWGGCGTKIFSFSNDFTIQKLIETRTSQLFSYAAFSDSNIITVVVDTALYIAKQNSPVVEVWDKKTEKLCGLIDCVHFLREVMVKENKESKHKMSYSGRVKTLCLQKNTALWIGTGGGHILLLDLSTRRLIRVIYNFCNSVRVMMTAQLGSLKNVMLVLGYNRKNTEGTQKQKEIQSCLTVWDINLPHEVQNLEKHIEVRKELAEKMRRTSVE
# Protocol: as §1, §2, §3, §4, §5
# as §4, with “<35%” for “<30%”, “35%).” for “30%).”
# TTK [2] = biological target: T3, TTK; test: ScanMAX Kinase panel (DiscoverX); type: binding; parameters: purchased DiscoverX Corp. (ScanMAX Kinase panel, commissioned); settings: read-out: % Cont @ 1 μM
# Protocol: as §1, §2, §3, §4, §5
# as §4, with “<35%” for “<30%”, “35%).” for “30%).”
GI50 (MDA-MB-231 cells),percent of control binding at 1 µM (RIPK5),remaining binding at 1 µM (SRPK3),IC50 (TTK [1]),percent of control binding at 1 µM (LRRK2),percent of control at 1 µM (TTK [2]),Compound
< 100 nM,30%,28%,< 50 nM,14%,0.25%,"COc1cc(N2CCCC2=O)ccc1Nc1cc(NC2CCCCC2)c2c(C#N)c[nH]c2n1 [Example 64, 4-(cyclohexylamino)-6-((2-methoxy-4-(2-oxopyrrolidin-1-yl)phenyl)amino)-1H-pyrrolo[2,3-b] pyridine-3-carbonitrile]"
< 100 nM,17%,30%,< 50 nM,4.8%,0.25%,"COc1cc(-c2ccnn2C)ccc1Nc1nc(NC2CCCCC2)c2c(C#N)c[nH]c2n1 [Example 7, 4-(cyclohexylamino)-2-((2-methoxy-4-(1-methyl-1H-pyrazol-5-yl)phenyl)amino)-7H-pyrrolo[2,3-d] pyrimidine-5-carbonitrile]"
